The record followed here is US20250320198A1, “SALT OF ENDOTHELIN A (ETA) RECEPTOR ANTAGONIST COMPOUND, AND PREPARATION METHOD THEREFOR AND MEDICAL USE THEREOF” (SHENZHEN SALUBRIS PHARMACEUTICALS CO., LTD, priority 2022, published 2025).

This series can be described thus: Research on compound microsome: prototype remaining and transformation to Atrasentan in human liver microsomes (+NADPH). Type of series: in vitro ADME. As to conditions: human liver microsome (+NADPH), 37° C. Here is the method: Human liver microsomes were all purchased from Rild Liver Disease Research (Shanghai) Co., Ltd.
Reagents: dimethyl sulfoxide (DMSO), acetonitrile, formic acid, and propranolol (internal standard) are all commercially available.
Instrument: Thermo Fisher Scientific LC-MS (U300 UPLC, TSQ QUANTUMN ULTRA triple quadrupole mass spectrometer).
A certain amount of compound was precisely weighed and dissolved in DMSO to prepare a 10 mM stock solution, and the stock solution was diluted with a diluent (ACN:H2O=1:1) to a 100 μM working solution, and then diluted with a 0.1 M potassium phosphate buffer solution to a 3 μM administration solution for later use. 75 μL of liver microsomes were taken and added into 925 μL of a 0.1 M potassium phosphate buffer solution to be mixed uniformly to obtain a 1.5 mg/mL liver microsome suspension, and the liver microsome suspension was pre-incubated at 37° C. for 10 minutes. Preparation at 0 o'clock: 15 μL of the above liver microsome suspension was taken and added into a 6 mM NADPH solution, 150 μL of a propranolol acetonitrile solution was added immediately for precipitation, and then 15 μL of the above administration solution was added and mixed uniformly for later use. Preparation of samples at 20 minutes and 60 minutes: 15 μL of the administration solution was taken, 15 μL of the liver microsome suspension and 15 μL of the 6 mM NADPH solution were added and mixed uniformly, and a mixture was incubated at 37° C. for 20 minutes and 60 minutes, respectively. The preparation of the above samples was carried out using dual-pore parallel operation. When the above samples are incubated to the relevant time point, 150 μL of the propranolol acetonitrile solution was added to terminate the reaction. All the above samples were centrifuged at 4000 rpm for 5 minutes, and 100 μL of a supernatant was taken, added into 100 μL of ultrapure water and mixed uniformly for LC-MS/MS analysis. LC-MS/MS detection conditions are as follows:
Chromatographic column: Waters ACQUITY™ PREMIER HSS T3, 50*2.1 mm, 1.8 μm.
Mobile phase: water (0.1% formic acid)—acetonitrile. Perform gradient elution according to the table below.
An initial 0 o'clock was taken as 100%, a relative residual content of the drug at each time point was calculated, and each time point of Atrasentan was taken as 100% to calculate the relative amount of transformation of the compound in the embodiment to Atrasentan.
On the technique in general: Liver microsomes are a subcellular fraction often used to study metabolism.

Turning to `CCCCN(CCCC)C(=O)CN1C[C@H](c2ccc3c(c2)OCO3)[C@@H](C(=O)O)[C@@H]1c1ccc(OC)cc1` [Atrasentan, (2R,3R,4S)-4-(benzo[d][1,3]dioxolan-5-yl)-1-[2-(dibutylamino)-2-oxoethyl]-2-(4-methoxyphenyl)pyrrolidine-3-carboxylic acid, reference compound], the “Prototype remaining quantity (%) Mean” value (time 0 min (taken as 100%)) is recorded as 100.0%, the “Prototype remaining quantity (%) Mean” value (time 20 min) turned out to be 83.3% and the “Prototype remaining quantity (%) Mean” value (time 60 min) is 50.3%.

`CCCCN(CCCC)C(=O)CN1C[C@H](c2ccc3c(c2)OCO3)[C@@H](C(=O)OCOC(=O)OCC)[C@@H]1c1ccc(OC)cc1` [Compound 1, 1-[(ethoxycarbonyl)oxy]methyl-(2R,3R,4S)-4-(benzo[d][1,3]dioxolane-5-yl)-1-[2-(dibutylamine)-2-oxoethyl]-2-(4-methoxyphenyl)pyrrolidine-3-carboxylate]: the “Prototype remaining quantity (%) Mean” value is reported as 100.0% (time 0 min (taken as 100%)), 0.5% (time 20 min) and 0.7% (time 60 min).

Consider `CCCCN(CCCC)C(=O)CN1C[C@H](c2ccc3c(c2)OCO3)[C@@H](C(=O)OC(C)OC(=O)OCC)[C@@H]1c1ccc(OC)cc1` (stereo partly drawn) [Compound 2, 1-[(ethoxycarbonyl)oxy]ethyl(2R,3R,4S)-4-(benzo[d][1,3]dioxolane-5-yl)-1-[2-(dibutylamino)-2-oxoethyl]-2-(4-methoxyphenyl)pyrrolidine-3-carboxylate], for which the “Prototype remaining quantity (%) Mean” value came to 100.0% (time 0 min (taken as 100%)), 67.8% (time 20 min) and 1.6% (time 60 min).

For the compound `CCCCN(CCCC)C(=O)CN1C[C@H](c2ccc3c(c2)OCO3)[C@@H](C(=O)OC(C)OC(=O)OCCNC)[C@@H]1c1ccc(OC)cc1` (stereo partly drawn) [Compound 5, 1-(((2-(methylamino)ethoxy)carbonyl)oxy)ethyl-(2R,3R,4S)-4-(benzo[d][1,3]dioxolane-5-yl)-1-[2-(dibutylamino)-2-oxoethyl]-2-(4-methoxyphenyl)pyrrolidine-3-carboxylate], the “Prototype remaining quantity (%) Mean” value is, setting by setting: (time 0 min (taken as 100%)) 100.0%; (time 20 min) 0%; (time 60 min) 0%.

Take `CCCCN(CCCC)C(=O)CN1C[C@H](c2ccc3c(c2)OCO3)[C@@H](C(=O)OC(C)OC(=O)OC[C@@H](O)CO)[C@@H]1c1ccc(OC)cc1` (stereo partly drawn) [Compound 6, 1-((((S)-2,3-dihydroxypropoxy)carbonyl)oxy)ethyl-(2R,3R,4S)-4-(benzo[d][1,3]dioxolane-5-yl)-1-[2-(dibutylamino)-2-oxoethyl]-2-(4-methoxyphenyl)pyrrolidine-3-carboxylate]: the “Prototype remaining quantity (%) Mean” value is reported as 100.0% (time 0 min (taken as 100%)), 0.0% (time 20 min) and 0.7% (time 60 min).

Take `CCCCN(CCCC)C(=O)CN1C[C@H](c2ccc3c(c2)OCO3)[C@@H](C(=O)OC(C)OC(=O)OCCO)[C@@H]1c1ccc(OC)cc1` (stereo partly drawn) [Compound 8, 1-(((2-hydroxyethoxy)carbonyl)oxy)ethyl-(2R,3R,4S)-4-(benzo[d][1,3]dioxolane-5-yl)-1-[2-(dibutylamino)-2-oxoethyl]-2-(4-methoxyphenyl)pyrrolidine-3--carboxylate]: the “Prototype remaining quantity (%) Mean” value (time 0 min (taken as 100%)) is given as 100.0%, the “Prototype remaining quantity (%) Mean” value (time 20 min) stood at 0.04% and the “Prototype remaining quantity (%) Mean” value (time 60 min) turned out to be 0.03%.

For the compound `CCCCN(CCCC)C(=O)CN1C[C@H](c2ccc3c(c2)OCO3)[C@@H](C(=O)OC(C)OC(=O)OC[C@H]2COCCO2)[C@@H]1c1ccc(OC)cc1` (stereo partly drawn) [Compound 9, 1-(((((R)-1,4-dioxane-2-yl)methoxy)carbonyl)oxy)ethyl-(2R,3R,4S)-4-(benzo[d][1,3]dioxolane-5-yl)-1-[2-(dibutylamino)-2-oxoethyl]-2-(4-methoxyphenyl)pyrrolidine-3-carboxylate], the “Prototype remaining quantity (%) Mean” value (time 0 min (taken as 100%)) is on record as 100.0%, the “Prototype remaining quantity (%) Mean” value (time 20 min) was found to be 0.1% and the “Prototype remaining quantity (%) Mean” value (time 60 min) came to 0.0%.

Regarding `CCCCN(CCCC)C(=O)CN1C[C@H](c2ccc3c(c2)OCO3)[C@@H](C(=O)OC(C)OC(=O)OC2COC2)[C@@H]1c1ccc(OC)cc1` (stereo partly drawn) [Compound 10, 1-((((oxetane-3-yl)oxy)carbonyl)oxy)ethyl-(2R,3R,4S)-4-(benzo[d][1,3]dioxolane-5-yl)-1-[2-(dibutylamino)-2-oxoethyl]-2-(4-methoxyphenyl)pyrrolidine-3-carboxylate], the “Prototype remaining quantity (%) Mean” value worked out at 100.0% (time 0 min (taken as 100%)), 0.0% (time 20 min) and 0.0% (time 60 min).

In the case of `CCCCN(CCCC)C(=O)CN1C[C@H](c2ccc3c(c2)OCO3)[C@@H](C(=O)OC(C)OC(=O)OC[C@@H]2COCCO2)[C@@H]1c1ccc(OC)cc1` (stereo partly drawn) [Compound 11, 1-(((((S)-1,4-dioxane-2-yl)methoxy)carbonyl)oxy)ethyl-(2R,3R,4S)-4-(benzo[d][1,3]dioxolane-5-yl)-1-[2-(dibutylamino)-2-oxoethyl]-2-(4-methoxyphenyl)pyrrolidine-3-carboxylate], the “Prototype remaining quantity (%) Mean” value amounted to 100.0% (time 0 min (taken as 100%)), 0.5% (time 20 min) and 0.0% (time 60 min).
